Reference: patent US7402575B2, “Methods of treating inflammation” (priority 2003, dated 2008)
“Also recorded” adds a separate entry of the source.

What was measured:
E. coli sepsis in dogs [1] = test: Early Treatment Study: TAC given 1.5 h after sepsis induced, hemodynamics; assay type: in vivo, dog; conditions: for Arterial pH / HR / Hct / Lactate / Pwp / SVR: mean±SE, n=5
Experimental: (§1) In all of the studies outlined, the animals were randomized into treatment and nontreatment placebo groups (see below). The E. coli model used in these studies was identical to that previously described (6). Sepsis was induced by the intravenous infusion of 10^10 colony forming units of live E. coli (designation 011:B4). The bacteria were suspended in normal saline solution and were given over 0.5 hour. A constant infusion of approximately 5×10^9 colony forming units/hour of E. coli was then maintained for the remainder of the experiment.
(§2) The animals (16-24 kg) were initially anesthetized with thiopental sodium (20 mg/kg, intravenously) and constantly infused with sufentanil citrate (1 ug/min) and midazolam (5 ug/kg/min) (33). Drug rates were adjusted as required to abolish the palpebral reflex. The animals were placed in the supine position; the trachea was intubated with an endotracheal tube; and the lungs were mechanically ventilated at a tidal volume of 20 ml/kg. The ventilator rate was initially set to maintain blood pH at approximately 7.35 and was increased as necessary to reverse the metabolic acidosis that developed over the course of the study. Approximately 100% oxygen was inspired, so that hypoxemia would not affect the results of the study.
(§3) Under sterile conditions, the right jugular vein was percutaneously cannulated with an introducer (Arrow International, Reading, Pa.). A thermister tipped catheter was advanced from the jugular vein into the pulmonary artery to measure mean pulmonary arterial pressure (Ppa), mean pulmonary capillary wedge pressure (Pwp), mean right atrial pressure (Pra), thermodilution cardiac output (CO, Columbus Instruments, OH), and to obtain mixed venous oxygen blood samples. Another introducer was placed into the left jugular vein for administration of intravenous saline solution and the treatment or placebo drug (see below). A polyethylene catheter was also percutaneously placed into the femoral artery to measure mean blood pressure (MAP), and to obtain samples of blood for blood gas analysis, blood hematocrit (Hct), lactate concentrations, and blood cultures in some cases. Lactate was measured by an automated lactate dehydrogenase based assay (34) and was performed only in ETS and LTS because of equipment difficulties in the Pretreatment Study.
(§4) All catheters were connected to transducers (Cobe Laboratories), were referenced relative to the left atrium and were connected to a chart recorder (Astro-Med, W Warwick, R.I.). Heart rate (HR) was measured from the recorder tracing. Stroke-volume (SV) was calculated as CO/HR. Systemic vascular resistance (SVR) was calculated from [(MAP-Pra)/CO]×80. At each measurement interval (see below), a full set of measurements included MAP, CO, Ppa, Pra, Pwp, Hct, HR, SV, and arterial and mixed venous blood samples.
(§5) In the analysis, stroke work (SW) was the primary index of cardiac performance and the primary hemodynamic endpoint chosen in the in vivo studies (35,18) (see Discussion). At constant preload, SW reflects both the decreases in afterload and the changes in contractile function that accompany sepsis. SW was determined at approximately the same Pwp at each measurement interval. The baseline Pwp usually averaged ≈8-10 mmHg, and normal saline solution was given as necessary to maintain Pwp constant over the experimental period. SW was calculated from SV (MAP-Pwp).
Early Treatment Study. The purpose of this study was to assess the effect of TAC when treatment was administered during sepsis, but before myocardial depression developed. Treatment was administered at 1.5 hours after bacteremia was begun (6). Based on the lack of response of some animals in the LTS, the initial dose of TAC was increased to 400 mg, and followed by 50 mg/h mixed in 50 cc D5W over the remainder of the study. The placebo group received an identical amount of D5W over the course of the study.

E. coli sepsis in dogs [2] = test: Late Treatment Study: TAC given after 3.5 h of sepsis, hemodynamics; assay type: in vivo, dog; conditions: for Arterial pH / HR / Hct / Lactate / Pwp / SVR: mean±SE, n=5
Experimental: as §1, §2, §3, §4, §5
Late Treatment Study. In LTS, the objective was to see if TAC would reverse myocardial depression once it had already been produced. TAC was administered after 3.5 hours after the initiation of bacteria and was given over a 0.5 hour in 200 ml D5W. Because it was also noted in the in vitro trabecular preparation that once lysozyme was already placed into the bath, a higher concentration of TAC was required to inhibit the effect of lysozyme, the initial dose was increased to 250 mg in LTC. […]

[3] = Late Treatment Study, 2 h posttreatment (6 h post-sepsis)
[4] = Late Treatment Study, 3.5 h post sepsis, before TAC
[5] = Late Treatment Study, immediately after TAC infusion

CC(=O)N[C@H]1[C@H](O[C@H]2[C@H](O)[C@@H](NC(C)=O)C(O)O[C@@H]2CO)O[C@H](CO)[C@@H](O[C@@H]2O[C@H](CO)[C@@H](O)[C@H](O)[C@H]2NC(C)=O)[C@@H]1O (stereo partly shown) [TAC, N,N′,N″ triacetylglucosamine]
CO over the course of sepsis (E. coli sepsis in dogs [1]; 6 h): increased over the course of sepsis as compared with the nontreated group; also recorded: significant increases | SV over the course of sepsis (E. coli sepsis in dogs [1]; 6 h): showed a similar finding | Arterial pH (E. coli sepsis in dogs [1]; 6 h after sepsis initiated): 7.24 ± .03 | HR (E. coli sepsis in dogs [1]; 6 h after sepsis initiated): 94 ± 8 beats/min | Hct (E. coli sepsis in dogs [1]; 6 h after sepsis initiated): 30 ± 4% | Lactate (E. coli sepsis in dogs [1]; 6 h after sepsis initiated): 1 ± .1 mM | Pwp (E. coli sepsis in dogs [1]; 6 h after sepsis initiated): 10.9 ± 1 mmHg | SVR (E. coli sepsis in dogs [1]; 6 h after sepsis initiated): 1792 ± 233 dynes s cm^−5 | Arterial pH (E. coli sepsis in dogs [1]; baseline): 7.23 ± .03 | HR (E. coli sepsis in dogs [1]; baseline): 68 ± 9 beats/min | Hct (E. coli sepsis in dogs [1]; baseline): 31 ± 2% | Lactate (E. coli sepsis in dogs [1]; baseline): 1 ± .1 mM | Pwp (E. coli sepsis in dogs [1]; baseline): 10 ± .5 mmHg | SVR (E. coli sepsis in dogs [1]; baseline): 2160 ± 581 dynes s cm^−5 | MAP over the 6 hrs of sepsis (E. coli sepsis in dogs [1]; treatment group): increased in 4 of the 5 dogs | SW once myocardial depression was observed (E. coli sepsis in dogs [2]; Late Treatment Study): little effect of treatment on SW | Hemodynamics (E. coli sepsis in dogs [2]; Late Treatment Study (FIG. 11)): no effect | Arterial pH (E. coli sepsis in dogs [2]; [3]): 7.20 ± .04 | HR (E. coli sepsis in dogs [2]; [3]): 90 ± 9 beats/min | Hct (E. coli sepsis in dogs [2]; [3]): 29 ± 6% | Lactate (E. coli sepsis in dogs [2]; [3]): 1.3 ± .4 mM | Pwp (E. coli sepsis in dogs [2]; [3]): 10 ± 1.6 mmHg | SVR (E. coli sepsis in dogs [2]; [3]): 1280 ± 182 dynes s cm^−5 | Arterial pH (E. coli sepsis in dogs [2]; [4]): 7.24 ± .05 | HR (E. coli sepsis in dogs [2]; [4]): 113 ± 9 beats/min | Hct (E. coli sepsis in dogs [2]; [4]): 26 ± 5% | Pwp (E. coli sepsis in dogs [2]; [4]): 9.8 ± 1 mmHg | SVR (E. coli sepsis in dogs [2]; [4]): 1200 ± 262 dynes s cm^−5 | Arterial pH (E. coli sepsis in dogs [2]; Late Treatment Study, baseline): 7.34 ± .015 | HR (E. coli sepsis in dogs [2]; Late Treatment Study, baseline): 60 ± 4 beats/min | Hct (E. coli sepsis in dogs [2]; Late Treatment Study, baseline): 34 ± 2% | Lactate (E. coli sepsis in dogs [2]; Late Treatment Study, baseline): .9 ± .2 mM | Pwp (E. coli sepsis in dogs [2]; Late Treatment Study, baseline): 9.4 ± 1 mmHg | SVR (E. coli sepsis in dogs [2]; Late Treatment Study, baseline): 2437 ± 343 dynes s cm^−5 | Arterial pH (E. coli sepsis in dogs [2]; [5]): 7.20 ± .04 | HR (E. coli sepsis in dogs [2]; [5]): 96 ± 8 beats/min | Hct (E. coli sepsis in dogs [2]; [5]): 27 ± 5% | Lactate (E. coli sepsis in dogs [2]; [5]): 1.3 ± .2 mM | Pwp (E. coli sepsis in dogs [2]; [5]): 10.5 ± 1.4 mmHg | SVR (E. coli sepsis in dogs [2]; [5]): 1268 ± 196 dynes s cm^−5
